Values of other authors in patent US20230279502A1, “IDENTIFICATION OF ESTROGEN RECEPTOR POSITIVE (ER+) BREAST CANCERS THAT WILL NOT DEVELOP TAMOXIFEN RESISTANCE” (Rutgers, The State University of New Jersey, priority 2020, published 2023).

Columns and labels:
human cancer cell lines = settings: different human cancer cell lines, based on expression levels of the read-out genes; high AUCs = decreased sensitivity
ER+ breast cancers = settings: ER+ breast cancer patients treated with tamoxifen

Q: Which “Sensitivity to tamoxifen treatment (area under the dose-response curve)” value (human cancer cell lines) does the source give for `CC/C(=C(\c1ccccc1)c1ccc(OCCN(C)C)cc1)c1ccccc1` [tamoxifen] here?
A: decreased sensitivity

Q: And the “Treated patients that develop therapeutic resistance” value (ER+ breast cancers)?
A: ~30%
